Test results published in publication PMC5813187, “Enhanced Permeability and Binding Activity of Isobutylene‐Grafted Peptides” (Chembiochem, 2017).
Where a SMILES comes first, the peptide text is derived from it.

Key:
[1] = Stability test in presence of GSH; assay type: physicochemical; conditions: around 1 mM peptide in H2O, 1 mM GSH, 37 °C, 48 h, HPLC
Experimental: (§1) GSH solution (to 1 mM) or 1 μL of reconstituted human plasma (Sigma -Aldrich), and the resulting
mixture vortexed for 30 s and then shaken at 37 °C. After 48 h, an aliquot of each reaction mixture was […]

[2] = Stability test in human plasma; assay type: in vitro ADME; conditions: 100 μL of around 1 mM peptide in H2O with 1 μL reconstituted human plasma (Sigma-Aldrich), 37 °C, 48 h, HPLC
Experimental: as §1
mixture vortexed for 30 s and then shaken at 37 °C. […]
DAD1 E, Sig=280,4 Ref =360,100 (SHUANG\ISOBUT YLENE STAPLED SOMATOST AT IN_PLASMA.D)

[3] = PAMPA, pH 7.4

Row | SMILES | stability in the presence of glutathione [1] | stability in the presence of glutathione ([1]; listed as Stapled Somatostatin) | stability in human plasma [2] | stability in human plasma ([2]; listed as Stapled Somatostatin) | Permeability [3] [×10⁻⁶ cm/s] | −log P e [3]
1 | C=C1CSC[C@@H](C(=O)O)NC(=O)[C@H](CO)NC(=O)[C@H]([C@@H](C)O)NC(=O)[C@H](Cc2ccccc2)NC(=O)[C@H]([C@@H](C)O)NC(=O)[C@H](CCCCN)NC(=O)[C@H](Cc2c[nH]c3ccccc23)NC(=O)[C@H](Cc2ccccc2)NC(=O)[C@H](Cc2ccccc2)NC(=O)[C@H](CC(N)=O)NC(=O)[C@H](CCCCN)NC(=O)[C@@H](NC(=O)CNC(=O)[C@H](C)N)CSC1 [stapled somatostatin] | fully stable | No significant degradation | fully stable | No significant degradation | – | –
2 | CC(=O)N[C@@H](CS)C(=O)N1CCC[C@H]1C(=O)N[C@@H](CC(C)C)C(=O)N[C@@H](CC(=O)O)C(=O)N[C@@H](Cc1ccccc1)C(=O)N[C@@H](C)C(=O)N[C@@H](CS)C(N)=O [II] (Ac-CPLDFAC-NH2) | – | – | – | – | 0.76 | 5.12
3 | CC(=O)N[C@@H](CS)C(=O)N1CCC[C@H]1C(=O)N[C@@H](CC(=O)O)C(=O)N[C@@H](Cc1ccccc1)C(=O)N[C@@H](CC(C)C)C(=O)N[C@@H](C)C(=O)N[C@@H](CS)C(N)=O [III] (Ac-CPDFLAC-NH2) | – | – | – | – | <0.001 | –
